Columns and labels:
[1] = target: collagenase from Clostridium histolyticum; experiment: In vitro collagenase inhibition assay (spectrophotometric, FALGPA substrate); assay type: biochemical; details: mean ± SD, triplicate; 0.1 U/mL collagenase, 0.8 mM FALGPA, Tricine buffer pH 7.5, 37 °C, 20 min incubation, absorbance at 335 nm; read-out: Anti-collagenase activity IC50
Protocol: The previous spectrophotometric procedure was modified and subsequently employed to determine the anti-collagenase activity of the isolated compounds [23]. This assay was performed in 50 mM Tricine buffer (pH = 7.5; 400 mM NaCl, 10 mM CaCl2). The mixed solution included 25 µL of 0.1 U/mL collagenase from Clostridium histolyticum, 25 µL Tricine buffer, and 25 µL of various levels of the sample were incubated at 37 °C for 20 min. After incubation, 75 µL of 0.8 mM FALGPA substrate was present. Then, absorbance was measured at 335 nm wavelength. Negative control was performed using Tricine buffer instead of sample and positive control was conducted with EGCG.
The percentage inhibition for assay was calculated by: Enzyme inhibition activity (%) = [1 − […]] × 100% where C is the negative control and S is the sample.

Question: Which melting point does the source give for `CC(=O)Oc1ccc(-c2cc(=O)c3c(O)cc(O)c(C4OCC(O)C(O)C4OC4OC(CO)C(O)C(O)C4O)c3o2)cc1O` [Compound 1, 5,7,3′-trihydroxy-4′-acetoxyflavone-8-C-β-D-xylopyranoside-2′′-O-glucoside] here?
Answer: 188.5 to 189 °C

Question: And the IC50 [1]?
Answer: 70.2 ± 1.37 µM

Question: With `COc1ccc(-c2cc(=O)c3c(O)cc(O)c(C4OCC(O)C(O)C4OC4OC(CO)C(O)C(O)C4O)c3o2)cc1O` [Compound 2, 5,7,3′-trihydroxy-4′-methoxyflavone-8-C-β-D-xylopyranoside-2′′-O-glucoside] as the molecule, how does the melting point read?
Answer: 178.5 to 179.2 °C

Question: And the IC50 [1]?
Answer: 64.9 ± 1.08 µM

Question: Which IC50 [1] does the source give for `COc1cc(-c2cc(=O)c3c(O)cc(O)c(C4OCC(O)C(O)C4OC4OC(CO)C(O)C(O)C4O)c3o2)ccc1OC(C)=O` [Compound 3, 5,7-dihydroxy-3′-methoxy-4′-acetoxyflavone-8-C-β-D-xylopyranoside-2′′-O-glucoside] here?
Answer: 48.3 ± 1.05 µM

Question: With `COc1cc(-c2cc(=O)c3c(O)cc(O)c(C4OCC(O)C(O)C4OC4OC(CO)C(OC(C)=O)C(O)C4O)c3o2)ccc1OC(C)=O` [Compound 4, 5,7-dihydroxy-3′-methoxy-4′-acetoxyflavone-8-C-β-D-xylopyranoside-2′′-O-(4′′′-acetoxy)-glucoside] as the molecule, how does the melting point read?
Answer: 164.6 to 166.2 °C

Question: And the IC50 [1]?
Answer: 36.1 ± 0.78 µM

Question: Which IC50 [1] does the source give for `COc1ccc(C(C)=O)c(O[C@@H]2O[C@H](CO[C@@H]3OC[C@](O)(CO)[C@H]3O)[C@@H](O)[C@H](O)[C@H]2O)c1` [Compound 5, apiopaenonside] here?
Answer: > 125 µM

Question: For `O=C(O[C@@H]1Cc2c(O)cc(O)cc2O[C@@H]1c1cc(O)c(O)c(O)c1)c1cc(O)c(O)c(O)c1` [EGCG, Epigallocatechin gallate, reference compound], which IC50 [1] is on record?
Answer: 34.32 ± 0.21 µM

Reference: PMC8468783, “New Flavone C-Glycosides from Scleranthus perennis and Their Anti-Collagenase Activity” (Molecules, 2021)
